Experimental data from ChEMBL document CHEMBL1201862, “PubChem BioAssay data set” (2004).
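These data come from cells grown in 96-well plates and exposed to compound for 48 hours at five concentrations. The concentration for 50% growth inhibition is given as GI50.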 Calls of active or inactive are those of the source. No stated cut-off is given here; in the data, active = GI50 up to about 1.1 µM and inactive = higher.

Experiments:
Assay in all cases: NCI-60 cell line screen, 48 h
[1] = test system: ACHN
[2] = test system: BT-549
[3] = test system: CAKI-1
[4] = test system: COLO 205
[5] = test system: Hs-578T
[6] = test system: IGROV-1
[7] = test system: KM12
[8] = test system: M14
[9] = test system: NCI-H226
[10] = test system: NCI-H522
[11] = test system: OVCAR-5
[12] = test system: OVCAR-8
[13] = test system: PC-3
[14] = test system: SF-539
[15] = test system: SNB-75
[16] = test system: UACC-257
[17] = test system: A549
[18] = test system: SK-MEL-28
[19] = test system: Malme-3M

Measured: GI50

Oc1nc2c(c(-c3cccc(Cl)c3)n1)COC/C2=C\c1cccc(Cl)c1
inactive: [1] > 100 µM | [2] > 100 µM | [3] > 100 µM | [4] > 100 µM | [5] > 100 µM | [6] > 100 µM | [7] > 100 µM | [8] > 100 µM | [9] > 100 µM | [10] > 100 µM | [11] > 100 µM | [12] > 100 µM | [13] > 100 µM | [14] > 100 µM | [15] > 100 µM | [16] > 100 µM

COC(=O)CCCC(=O)C1=NN(c2ccc(Cl)cc2)Cc2ccccc2N1
inactive: [17] 96.4 µM | [1] > 100 µM | [2] > 100 µM | [3] > 100 µM | [4] 54 µM | [5] 68.4 µM | [6] > 100 µM | [7] > 100 µM | [8] > 100 µM | [9] 51.4 µM | [10] 54.7 µM | [11] > 100 µM | [12] 56.4 µM | [13] 91 µM | [14] > 100 µM | [18] > 100 µM | [15] 88.3 µM | [16] > 100 µM

O=C(OCC1CCCN2CCCCC12)c1cccnc1 (stereo not given)
inactive: [17] > 100 µM | [1] > 100 µM | [2] > 100 µM | [3] > 100 µM | [4] > 100 µM | [5] > 100 µM | [7] > 100 µM | [19] > 100 µM | [9] > 100 µM | [12] > 100 µM | [13] > 100 µM | [14] > 100 µM | [18] > 100 µM | [15] > 100 µM | [16] > 100 µM

Cc1c([C@H](C)[C@@H]2NC[C@@H](C)C[C@H]2O)ccc2c1C[C@H]1[C@H]2CC=C2C[C@@H](O)CC[C@@]21C [VERATRAMINE]
inactive: [17] 16.7 µM | [1] 15 µM | [2] 21.1 µM | [3] 26.6 µM | [4] 14.4 µM | [5] 20.6 µM | [6] 16.1 µM | [7] 14.5 µM | [8] 15.7 µM | [19] 16.2 µM | [9] 11.9 µM | [10] 13 µM | [11] 17.8 µM | [12] 21.9 µM | [13] 11.5 µM | [18] 17.3 µM | [15] 17.5 µM | [16] 13.2 µM

CN(C)/C=C/c1nnc([N+](=O)[O-])s1
inactive: [17] 19.9 µM | [1] 15.5 µM | [2] 17.9 µM | [3] 18.2 µM | [4] 3.58 µM | [5] 14.5 µM | [7] 7.73 µM | [8] 14.6 µM | [19] 4.22 µM | [9] 20.5 µM | [10] 1.66 µM | [12] 17.1 µM | [13] 4.95 µM | [14] 8.79 µM | [15] 23.9 µM | [16] 14.2 µM

N/C(=N\c1cccc(Cl)c1)c1ccccc1N
inactive: [17] > 100 µM | [1] > 100 µM | [2] > 100 µM | [3] > 100 µM | [4] > 100 µM | [5] > 100 µM | [6] > 100 µM | [7] > 100 µM | [8] > 100 µM | [19] > 100 µM | [9] > 100 µM | [10] > 100 µM | [11] > 100 µM | [12] > 100 µM | [13] > 100 µM | [18] > 100 µM | [15] > 100 µM | [16] > 100 µM

COc1ccc(C(C)NNC(=O)c2ccncc2)cc1F (stereo not given)
inactive: [17] > 100 µM | [1] > 100 µM | [2] > 100 µM | [3] > 100 µM | [4] > 100 µM | [5] > 100 µM | [6] > 100 µM | [7] > 100 µM | [8] > 100 µM | [19] > 100 µM | [9] > 100 µM | [11] > 100 µM | [12] > 100 µM | [13] > 100 µM | [14] > 100 µM | [18] > 100 µM | [15] > 100 µM | [16] > 100 µM

CCN(CC)CCC(=O)c1ccc(Oc2ccc(Cl)cc2)cc1
inactive: [17] > 100 µM | [1] 12.9 µM | [2] 17 µM | [3] 23.3 µM | [4] 24.3 µM | [5] 23.6 µM | [6] 20.4 µM | [7] 14.4 µM | [8] 15.1 µM | [19] 18 µM | [10] 19 µM | [11] 16.2 µM | [12] 19.9 µM | [13] 15.1 µM | [14] 24.8 µM | [18] 17.7 µM | [15] 12 µM | [16] 14 µM

C=C1C/C(=C/C)C(=O)O[C@@H]2CCN3CC=C(COC(=O)[C@]1(C)O)[C@H]23 [SENECIPHYLLINE]
inactive: [17] > 100 µM | [1] > 100 µM | [2] > 100 µM | [3] > 100 µM | [4] > 100 µM | [5] > 100 µM | [6] > 100 µM | [7] > 100 µM | [8] > 100 µM | [9] 35.5 µM | [10] > 100 µM | [11] > 100 µM | [12] > 100 µM | [13] > 100 µM | [14] > 100 µM | [18] > 100 µM | [15] > 100 µM | [16] > 100 µM

CC1=C(C(=O)N(C(C)C)C(C)C)CC(C(=O)N(C(C)C)C(C)C)=C(C)N1
inactive: [17] > 100 µM | [1] > 100 µM | [2] > 100 µM | [3] > 100 µM | [4] > 100 µM | [5] > 100 µM | [6] > 100 µM | [7] > 100 µM | [8] > 100 µM | [9] > 100 µM | [10] > 100 µM | [11] > 100 µM | [12] > 100 µM | [13] 96.6 µM | [14] > 100 µM | [15] 16.4 µM | [16] > 100 µM

CCOC(=O)OC1C(Br)C2CCC1(C)C2(C)C (stereo not given)
inactive: [17] 16 µM | [1] 15.3 µM | [2] 17.2 µM | [4] 13 µM | [5] 13.8 µM | [6] 18.7 µM | [7] 14 µM | [8] 12.6 µM | [19] 16.7 µM | [9] 12 µM | [10] 15.2 µM | [11] 17.7 µM | [12] 16 µM | [13] 11.3 µM | [14] 14.1 µM | [18] 15.7 µM | [15] 11.1 µM | [16] 15.9 µM
